Measured values as given in patent US11977068B2, “Method for testing ecotoxicity of disinfection by-products” (priority 2020, dated 2024).

Assays:
[1] = tested on: brine shrimp; assay: Acute toxicity test on second-instar brine shrimp (survival/mortality); details: for minimum effective concentration (defined as the concentration causing 20% death): second-instar brine shrimp
Procedure: (§1) S1, anhydrous freeze-dried eggs of a brine shrimp are hatched in artificial seawater to obtain a first-instar brine shrimp, where, a hatching temperature is (26±1)° C., the hatching is performed under a continuous aeration for a hatching time of (10-24) h, and an aeration gas source is air. After the hatching is finished, the first-instar brine shrimp and non-hatched brine shrimp eggs are separated immediately, and the first-instar brine shrimp is placed in the artificial seawater. The brine shrimp at different life stages may have different tolerance to toxicity, and therefore, a separation of the brine shrimp at different instars can avoid the instability of experimental results. S2, the first-instar brine shrimp is cultured in a light incubator for 24 h to obtain a second-instar brine shrimp, where, a culture temperature is (26±1)° C., a light time and a dark time are respectively continuous 12 h, and a light intensity in the light incubator is (1,000-3,000) Lux. S3. First, the second-instar brine shrimp is pre-placed in a water sample to be tested containing toxic substances and exposed for a predetermined time to enable the artificial seawater carried by the second-instar brine shrimp to mix uniformly with the water sample to be tested, and then the second-instar brine shrimp is put into a culture plate containing the water sample to be tested for an acute toxicity test with a time end-point of (42-54) h and a chronic toxicity test with a time end-point of (12-16) days. After the time end-point of the toxicity test is reached, the culture plate is slightly vibrated to observe the survival of the brine shrimp in each well. […] A mortality rate of the brine shrimp is obtained to calculate the toxicity of the water sample to the brine shrimp.
(§2) Hatching of a brine shrimp: 3-5 g of anhydrous freeze-dried eggs of the brine shrimp is put into a 1,500 mL beaker containing 1,200 mL of seawater. The opening of the beaker is sealed with aluminum foil and the beaker is placed in a constant temperature water bath at (26±1)° C. A small air pump is used to blow air for aeration and hatching for 12 h. After the hatching is finished, the first-instar brine shrimp is randomly picked out with a Pasteur pipette immediately and placed in a 150 mm crystallization dish containing sufficient seawater.
(§3) Culture of the brine shrimp: the first-instar brine shrimp is cultured in a light incubator for 24 h. The conditions in the light incubator are as follows: a temperature is (25±1)° C., a light intensity is 1,000 Lux, and a light time and a dark time are respectively continuous 12 h.
(§4) Acute toxicity test: 150 mL of each water sample to be tested is put into a brown bottle, four groups of the water samples with different concentrations of IAM are added into a 12-well culture plate with a pipette, with 2.5 mL of liquid in each well, and each 3 wells is an experimental group with the same concentration of the water samples. The remaining solution in each brown bottle is poured into a clean 150 mm crystallization dish. At least 30 second-instar brine shrimps are transferred into 100-150 mL of the water sample to be tested at one time by the Pasteur pipette in the crystallizing dish, respectively. The second-instar brine shrimps that have been exposed to the solution are transferred by the Pasteur pipette to the culture wells with 10 second-instar brine shrimps in each well. The culture plate is cultured in light. The survival of the brine shrimps in each well is observed after 48 h. The time difference of transferring brine shrimps within and between groups should be shortened as far as possible to avoid the influence of excessive time difference on brine shrimp growth.

[2] = as above; details: brine shrimp (Artemia), in vivo, other: immersion in the water sample in culture wells
Procedure: as §1, §2, §3, §4

[3] = tested on: brine shrimp; assay: Chronic toxicity test on second-instar brine shrimp (survival/mortality)
Procedure: as §1
The remaining solution in each brown bottle is poured into a clean 150 mm crystallization dish. […] The culture plate is cultured in light. […] The time difference of transferring brine shrimps within and between groups should be shortened as far as possible to avoid the influence of excessive time difference on brine shrimp growth.

Structure (SMILES)	impact on the survival of brine shrimp in a short period ([1]; 59.588 μM, 54 h)	minimum effective concentration (defined as the concentration causing 20% death) ([1]; 54 h exposure, fitted from FIG. 3 data)	LC50 at 54 h [2]	mortality rate ([3]; 59.588 μM (acute minimum effective concentration), 16 days exposure)	survival rate of brine shrimp ([3]; 59.588 μM, 16 days exposure)	impact on the survival of brine shrimp in a short period ([1]; 544.5 μM, 48 h)	minimum effective concentration (defined as the concentration causing 20% death) ([1]; 48 h exposure, fitted from FIG. 2 data)	LC50 at 48 h [2]	mortality rate ([3]; 544.5 μM (acute minimum effective concentration), 14 days exposure)	survival rate of brine shrimp ([3]; 544.5 μM, 14 days exposure)
O=C(O)CI [IAA, iodoacetic acid]	does not cause significant impact on the survival	59.588 µM	1050 µM	100%	0					
NC(=O)CI [IAM, iodoacetamide]						does not cause significant impact on the survival	544.5 µM	557 µM	100%	0
